In US20260347338A1, “PYRIMIDINE/PYRIDINE DERIVATIVES OR SALTS THEREOF AND PHARMACEUTICAL COMPOSITIONS COMPRISING THE SAME” (YUHAN CORPORATION, priority 2023, published 2026):

Biological target: T1, human recombinant HPK1 (Homo sapiens, UniProt Q92918)
T1 construct: purchased BPS Bioscience
Assay: Inhibitory activity against human recombinant HPK1 (TR-FRET)
Format: biochemical
Details: ULight-p70S6K peptide, ATP at Km, room temperature, 1 hour, 0.32 to 1000 nM compound
Experimental: Test Example: Evaluation of Inhibitory Activity Against Human Recombinant HPK1
The inhibitory activity against human recombinant HPK1 was evaluated using the Time-Resolved Fluorescence Resonance Energy Transfer (TR-FRET) technology of Perkin-Elmer. The test compound was prepared as a 20 mM stock solution with dimethyl sulfoxide (DMSO), serially diluted in a buffer solution, and used at final compound concentrations of 0.32 to 1000 nM. The evaluation of inhibitory activity was carried out at room temperature, using recombinant human HPK1 (BPS Bioscience). Briefly, recombinant human HPK1, serially diluted each test compound, ULight-p70S6K peptide substrate (PerkinElmer), and ATP at each concentration (Km and final concentration) were added to a kinase buffer solution (50 mM HEPES pH 7.4, 10 mM MgCl2, 1 mM EGTA, 3 mM MnCl2, 2 mM DTT, and 0.01% Tween-20). The resulting mixture was added to each well of a 384-well plate (Optiplate™ 384, white, PerkinElmer). The enzyme reaction was carried out at room temperature for 1 hour. After the reaction was suspended by adding 4 μL of a stop solution (10 mM EDTA) thereto, the mixture was stirred for 1 minute and then a detection solution containing Europium-labeled anti-phosphopeptide antibody (final concentration: 2 nM, PerkinElmer) was added thereto. The signals of TR-FRET at excitation wavelength (320 nm) and emission wavelength (665 nm) were detected using a microplate reader (Envision Multilabel Reader, Perkin-Elmer). Inhibition by the test compound was measured as % inhibition in the signals, compared to the control group treated with DMSO only. The IC50 value of each compound was calculated using the GraphPad Prism program (GraphPad Software, Inc., San Diego, CA, USA). The IC50 values of test compounds for inhibitory activity against HPK1 were classified as follows: • A: IC50≤10 nM • B: 10 nM<IC50≤50 nM • C: 50 nM<IC50≤100 nM • D: IC50>100 nM

T1 sequence (Q92918 whole entry): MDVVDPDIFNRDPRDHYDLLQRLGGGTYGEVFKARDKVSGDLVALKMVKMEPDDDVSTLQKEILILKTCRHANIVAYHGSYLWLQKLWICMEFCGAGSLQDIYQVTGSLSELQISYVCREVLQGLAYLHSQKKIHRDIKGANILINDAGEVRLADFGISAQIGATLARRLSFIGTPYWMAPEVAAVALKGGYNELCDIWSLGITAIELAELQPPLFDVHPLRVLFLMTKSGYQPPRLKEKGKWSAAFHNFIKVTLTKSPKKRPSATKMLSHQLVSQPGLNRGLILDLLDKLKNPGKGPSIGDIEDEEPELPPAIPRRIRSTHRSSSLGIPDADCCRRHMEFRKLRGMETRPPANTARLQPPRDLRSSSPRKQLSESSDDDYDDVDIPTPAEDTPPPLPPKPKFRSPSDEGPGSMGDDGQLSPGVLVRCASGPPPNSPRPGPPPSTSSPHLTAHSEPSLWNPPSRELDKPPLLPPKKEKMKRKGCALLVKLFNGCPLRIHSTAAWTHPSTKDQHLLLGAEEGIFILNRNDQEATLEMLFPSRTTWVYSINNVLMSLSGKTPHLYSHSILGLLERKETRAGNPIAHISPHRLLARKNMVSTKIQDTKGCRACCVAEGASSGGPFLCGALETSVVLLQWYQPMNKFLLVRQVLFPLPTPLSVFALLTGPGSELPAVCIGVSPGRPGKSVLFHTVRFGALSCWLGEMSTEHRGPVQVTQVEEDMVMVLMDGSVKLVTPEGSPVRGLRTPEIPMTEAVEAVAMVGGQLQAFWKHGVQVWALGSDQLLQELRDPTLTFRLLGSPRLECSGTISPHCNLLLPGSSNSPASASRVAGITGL

| SMILES | IC50 [µM] |
| --- | --- |
| CCOc1cccc(F)c1-c1nccc(Nc2cc(N3CCC[C@H](O)C3)c(-c3cnn(C4CCOCC4)c3)cn2)n1 [Example 25, (S)-1-(2-((2-(2-ethoxy-6-fluorophenyl)pyrimidin-4-yl)amino)-5-(1-(tetrahydro-2H-pyran-4-yl)-1H-pyrazol-4-yl)pyridin-4-yl)piperidin-3-ol] | 0.01 to 0.05 |
| O[C@H]1CCCN(c2cc(Nc3ccnc(-c4ccn5ncnc5c4)n3)ncc2-c2cnn(C3CCOCC3)c2)C1 [Example 26, (S)-1-(2-((2-([1,2,4]triazolo[1,5-a]pyridin-7-yl)pyrimidin-4-yl)amino)-5-(1-(tetrahydro-2H-pyran-4-yl)-1H-pyrazol-4-yl)pyridin-4-yl)piperidin-3-ol] | 0.05 to 0.1 |
| O[C@H]1CCCN(c2cc(Nc3ccnc(-c4cnn5ccccc45)n3)ncc2-c2cnn(C3CCOCC3)c2)C1 [Example 27, (S)-1-(2-((2-(pyrazolo[1,5-a]pyridin-3-yl)pyrimidin-4-yl)amino)-5-(1-(tetrahydro-2H-pyran-4-yl)-1H-pyrazol-4-yl)pyridin-4-yl)piperidin-3-ol] | 0.01 to 0.05 |
| O[C@H]1CCCN(c2cc(Nc3ccnc(-c4ccc5nccnc5c4)n3)ncc2-c2cnn(C3CCOCC3)c2)C1 [Example 28, (S)-1-(2-((2-(quinoxalin-6-yl)pyrimidin-4-yl)amino)-5-(1-(tetrahydro-2H-pyran-4-yl)-1H-pyrazol-4-yl)pyridin-4-yl)piperidin-3-ol] | 0.01 to 0.05 |
| O[C@H]1CCCN(c2cc(Nc3ccnc(-c4ccc5cccnc5c4F)n3)ncc2-c2cnn(C3CCOCC3)c2)C1 [Example 29, (S)-1-(2-((2-(8-fluoroquinolin-7-yl)pyrimidin-4-yl)amino)-5-(1-(tetrahydro-2H-pyran-4-yl)-1H-pyrazol-4-yl)pyridin-4-yl)piperidin-3-ol] | ≤ 0.01 |
| COc1cccc(F)c1-c1nccc(Nc2cc(N3CCC[C@H](O)C3)c(-c3ccc(CN4CCN(C)CC4)nc3)cn2)n1 [Example 30, (S)-1-(6-((2-(2-fluoro-6-methoxyphenyl)pyrimidin-4-yl)amino)-6′-((4-methylpiperazin-1-yl)methyl)-[3,3′-bipyridin]-4-yl)piperidin-3-ol] | 0.01 to 0.05 |
| COc1cccc(F)c1-c1nccc(Nc2cc(N3CCC[C@H](O)C3)c(-c3ccc(C4CCOCC4)nc3)cn2)n1 [Example 31, (S)-1-(6-((2-(2-fluoro-6-methoxyphenyl)pyrimidin-4-yl)amino)-6′-(tetrahydro-2H-pyran-4-yl)-[3,3′-bipyridin]-4-yl)piperidin-3-ol] | ≤ 0.01 |
| COc1cccc(F)c1-c1nccc(Nc2cc(N3CCC[C@H](O)C3)c(-c3ccc(CN4CCOCC4)nc3)cn2)n1 [Example 32, (S)-1-(6-((2-(2-fluoro-6-methoxyphenyl)pyrimidin-4-yl)amino)-6′-(morpholinomethyl)-[3,3′-bipyridin]-4-yl)piperidin-3-ol] | 0.01 to 0.05 |
| COc1cccc(F)c1-c1nccc(Nc2cc(N3CCC[C@H](O)C3)c(-c3ccc(CN4CCC(O)CC4)nc3)cn2)n1 [Example 33, (S)-1-(6-((2-(2-fluoro-6-methoxyphenyl)pyrimidin-4-yl)amino)-6′-((4-hydroxypiperidin-1-yl)methyl)-[3,3′-bipyridin]-4-yl)piperidin-3-ol] | 0.01 to 0.05 |
| COc1cccc(F)c1-c1nccc(Nc2cc(N3CCCC(C(N)=O)C3)c(-c3cnn(C4CCOCC4)c3)cn2)n1 (stereo not drawn) [Example 34, 1-(2-((2-(2-fluoro-6-methoxyphenyl)pyrimidin-4-yl)amino)-5-(1-(tetrahydro-2H-pyran-4-yl)-1H-pyrazol-4-yl)pyridin-4-yl)piperidin-3-carboxamide] | 0.01 to 0.05 |
| COc1cccc(F)c1-c1cccc(Nc2cc(N3CCC[C@H](O)C3)c(-c3cnn(C4CCOCC4)c3)cn2)n1 [Example 35, (S)-1-(2-((6-(2-fluoro-6-methoxyphenyl)pyridin-2-yl)amino)-5-(1-(tetrahydro-2H-pyran-4-yl)-1H-pyrazol-4-yl)pyridin-4-yl)piperidin-3-ol] | ≤ 0.01 |
| COc1cccc(F)c1-c1nccc(Nc2cc(N3CCC[C@H](O)C3)c(-c3ccc(C(=O)N4CCN(C)CC4)nc3)cn2)n1 [Example 36, (S)-(6′-((2-(2-fluoro-6-methoxyphenyl)pyrimidin-4-yl)amino)-4′-(3-hydroxypiperidin-1-yl)-[3,3′-bipyridin]-6-yl)(4-methylpiperazin-1-yl)methanone] | ≤ 0.01 |
| COc1cccc(F)c1-c1nccc(Nc2cc(N3CCC[C@H](O)C3)c(-c3ccc(C(=O)N4CCOCC4)nc3)cn2)n1 [Example 37, (S)-(6′-((2-(2-fluoro-6-methoxyphenyl)pyrimidin-4-yl)amino)-4′-(3-hydroxypiperidin-1-yl)-[3,3′-bipyridin]-6-yl)(morpholino)methanone] | 0.01 to 0.05 |
| COc1cccc(F)c1-c1nccc(Nc2cc(N3CCC[C@H](O)C3)c(-c3ccc(C(=O)N4CCC(O)CC4)nc3)cn2)n1 [Example 38, (S)-(6′-((2-(2-fluoro-6-methoxyphenyl)pyrimidin-4-yl)amino)-4′-(3-hydroxypiperidin-1-yl)-[3,3′-bipyridin]-6-yl)(4-hydroxypiperidin-1-yl)methanone] | ≤ 0.01 |
| COc1cccc(F)c1-c1nccc(Nc2cc(N3CCC[C@H](O)C3)c(-c3ccc(CN4CC[C@H](F)C4)nc3)cn2)n1 [Example 39, (S)-1-(6-((2-(2-fluoro-6-methoxyphenyl)pyrimidin-4-yl)amino)-6′-(((S)-3-fluoropyrrolidin-1-yl)methyl)-[3,3′-bipyridin]-4-yl)piperidin-3-ol] | ≤ 0.01 |
| COc1cccc(F)c1-c1nc(Nc2cc(N3CCC[C@H](O)C3)c(-c3cnn(C4CCOCC4)c3)cn2)ccc1F [Example 40, (3S)-1-(2-((5-fluoro-6-(2-fluoro-6-methoxyphenyl)pyridin-2-yl)amino)-5-(1-(tetrahydro-2H-pyran-4-yl)-1H-pyrazol-4-yl)pyridin-4-yl)piperidin-3-ol] | ≤ 0.01 |
| COc1cccc(F)c1-c1nc(Nc2cc(N3CCC[C@H](O)C3)c(-c3cnn(C4CCOCC4)c3)cn2)ccc1[N+](=O)[O-] [Example 41, (3S)-1-(2-((6-(2-fluoro-6-methoxyphenyl)-5-nitropyridin-2-yl)amino)-5-(1-(tetrahydro-2H-pyran-4-yl)-1H-pyrazol-4-yl)pyridin-4-yl)piperidin-3-ol] | ≤ 0.01 |
| COc1cccc(F)c1-c1nccc(Nc2cc(N3CCC[C@H](O)C3)c(-c3cccnc3)cn2)n1 [Example 42, (S)-1-(6-((2-(2-fluoro-6-methoxyphenyl)pyrimidin-4-yl)amino)-[3,3′-bipyridin]-4-yl)piperidin-3-ol] | 0.01 to 0.05 |
| COc1cccc(F)c1-c1nccc(Nc2cc(N3CCC[C@H](O)C3)c(-c3ccc(CN4CCC(O)C4)nc3)cn2)n1 (stereo partly drawn) [Example 43, (3S)-1-(6-((2-(2-fluoro-6-methoxyphenyl)pyrimidin-4-yl)amino)-6′-((3-hydroxypyrrolidin-1-yl)methyl)-[3,3′-bipyridin]-4-yl)piperidin-3-ol] | ≤ 0.01 |
| COc1cccc(F)c1-c1nccc(Nc2cc(N3CCC(N(C)C)C3)c(-c3cnn(C4CCOCC4)c3)cn2)n1 (stereo not drawn) [Example 44, N-(4-(3-(dimethylamino)pyrrolidin-1-yl)-5-(1-(tetrahydro-2H-pyran-4-yl)-1H-pyrazol-4-yl)pyridin-2-yl)-2-(2-fluoro-6-methoxyphenyl)pyrimidin-4-amine] | 0.01 to 0.05 |
| COc1cccc(F)c1-c1nccc(Nc2cc(N3CCC(C)(CO)C3)c(-c3cnn(C4CCOCC4)c3)cn2)n1 (stereo not drawn) [Example 45, (1-(2-((2-(2-fluoro-6-methoxyphenyl)pyrimidin-4-yl)amino)-5-(1-(tetrahydro-2H-pyran-4-yl)-1H-pyrazol-4-yl)pyridin-4-yl)-3-methylpyrrolidin-3-yl)methanol] | > 0.1 |
| COc1cccc(F)c1-c1nccc(Nc2cc(N3CCC(F)(CN(C)C)CC3)c(-c3cnn(C4CCOCC4)c3)cn2)n1 [Example 46, N-(4-(4-((dimethylamino)methyl)-4-fluoropiperidin-1-yl)-5-(1-(tetrahydro-2H-pyran-4-yl)-1H-pyrazol-4-yl)pyridin-2-yl)-2-(2-fluoro-6-methoxyphenyl)pyrimidin-4-amine] | ≤ 0.01 |
| COc1cccc(F)c1-c1nccc(Nc2cc(N3CCC(CO)(CC(F)F)CC3)c(-c3cnn(C4CCOCC4)c3)cn2)n1 [Example 47, (4-(2,2-difluoroethyl)-1-(2-((2-(2-fluoro-6-methoxyphenyl)pyrimidin-4-yl)amino)-5-(1-(tetrahydro-2H-pyran-4-yl)-1H-pyrazol-4-yl)pyridin-4-yl)piperidin-4-yl)methanol] | ≤ 0.01 |
| COc1cccc(F)c1-c1nccc(Nc2cc(N3CCC[C@H](O)C3)c(-c3ccc(CN4CCC(N(C)C)C4)nc3)cn2)n1 (stereo partly drawn) [Example 48, (3S)-1-(6′-((3-(dimethylamino)pyrrolidin-1-yl)methyl)-6-((2-(2-fluoro-6-methoxyphenyl)pyrimidin-4-yl)amino)-[3,3′-bipyridin]-4-yl)piperidin-3-ol] | ≤ 0.01 |
